Laboratory results published in ChEMBL document CHEMBL4138123, “Design, synthesis and biological evaluation of novel pyrazolochalcones as potential modulators of PI3K/Akt/mTOR pathway and inducers of apoptosis in breast cancer cells” (Eur J Med Chem, 2017).

Experiments:
Assay type in all cases: functional
SF-295 [1] = experiment: Cytotoxicity against human SF295 cells assessed as growth inhibition after 48 hrs by sulforhodamine B assay; conditions: SF-295, 48 h
SNB-75 [2] = experiment: Cytotoxicity against human SNB75 cells assessed as growth inhibition after 48 hrs by sulforhodamine B assay; conditions: SNB-75, 48 h
CAKI-1 [3] = experiment: Cytotoxicity against human Caki1 cells assessed as growth inhibition after 48 hrs by sulforhodamine B assay; conditions: CAKI-1, 48 h
CAKI-1 [4] = experiment: Cytotoxicity against human Caki1 cells assessed as cell growth at 0.01 uM after 48 hrs by sulforhodamine B assay relative to control; conditions: CAKI-1, 48 h, read-out: Activity
SNB-75 [5] = experiment: Cytotoxicity against human SNB75 cells assessed as cell growth at 0.01 uM after 48 hrs by sulforhodamine B assay relative to control; conditions: SNB-75, 48 h, read-out: Activity
SF-295 [6] = experiment: Cytotoxicity against human SF295 cells assessed as cell growth at 0.01 uM after 48 hrs by sulforhodamine B assay relative to control; conditions: SF-295, 48 h, read-out: Activity
SF-295 [7] = experiment: Cytotoxicity against human SF295 cells assessed as cell growth at 0.1 uM after 48 hrs by sulforhodamine B assay relative to control; conditions: SF-295, 48 h, read-out: Activity
SNB-75 [8] = experiment: Cytotoxicity against human SNB75 cells assessed as cell growth at 0.1 uM after 48 hrs by sulforhodamine B assay relative to control; conditions: SNB-75, 48 h, read-out: Activity
CAKI-1 [9] = experiment: Cytotoxicity against human Caki1 cells assessed as cell growth at 0.1 uM after 48 hrs by sulforhodamine B assay relative to control; conditions: CAKI-1, 48 h, read-out: Activity
SF-295 [10] = experiment: Cytotoxicity against human SF295 cells assessed as cell growth at 1 uM after 48 hrs by sulforhodamine B assay relative to control; conditions: SF-295, 48 h, read-out: Activity
SNB-75 [11] = experiment: Cytotoxicity against human SNB75 cells assessed as cell growth at 1 uM after 48 hrs by sulforhodamine B assay relative to control; conditions: SNB-75, 48 h, read-out: Activity
CAKI-1 [12] = experiment: Cytotoxicity against human Caki1 cells assessed as cell growth at 1 uM after 48 hrs by sulforhodamine B assay relative to control; conditions: CAKI-1, 48 h, read-out: Activity
SF-295 [13] = experiment: Cytotoxicity against human SF295 cells assessed as cell growth at 10 uM after 48 hrs by sulforhodamine B assay relative to control; conditions: SF-295, 48 h, read-out: Activity
SNB-75 [14] = experiment: Cytotoxicity against human SNB75 cells assessed as cell growth at 10 uM after 48 hrs by sulforhodamine B assay relative to control; conditions: SNB-75, 48 h, read-out: Activity
CAKI-1 [15] = experiment: Cytotoxicity against human Caki1 cells assessed as cell growth at 10 uM after 48 hrs by sulforhodamine B assay relative to control; conditions: CAKI-1, 48 h, read-out: Activity
SF-295 [16] = experiment: Cytotoxicity against human SF295 cells assessed as cell growth at 100 uM after 48 hrs by sulforhodamine B assay relative to control; conditions: SF-295, 48 h, read-out: Activity
SNB-75 [17] = experiment: Cytotoxicity against human SNB75 cells assessed as cell growth at 100 uM after 48 hrs by sulforhodamine B assay relative to control; conditions: SNB-75, 48 h, read-out: Activity
CAKI-1 [18] = experiment: Cytotoxicity against human Caki1 cells assessed as cell growth at 100 uM after 48 hrs by sulforhodamine B assay relative to control; conditions: CAKI-1, 48 h, read-out: Activity
SK-MEL-2 [19] = experiment: Cytotoxicity against human SK-MEL-2 cells assessed as cell growth at 0.01 uM after 48 hrs by sulforhodamine B assay relative to control; conditions: SK-MEL-2, 48 h, read-out: Activity
LOX IMVI [20] = experiment: Cytotoxicity against human LOXIMVI cells assessed as cell growth at 0.01 uM after 48 hrs by sulforhodamine B assay relative to control; conditions: read-out: Activity
LOX IMVI [21] = experiment: Cytotoxicity against human LOXIMVI cells assessed as cell growth at 0.1 uM after 48 hrs by sulforhodamine B assay relative to control; conditions: read-out: Activity
SK-MEL-2 [22] = experiment: Cytotoxicity against human SK-MEL-2 cells assessed as cell growth at 0.1 uM after 48 hrs by sulforhodamine B assay relative to control; conditions: SK-MEL-2, 48 h, read-out: Activity
LOX IMVI [23] = experiment: Cytotoxicity against human LOXIMVI cells assessed as cell growth at 1 uM after 48 hrs by sulforhodamine B assay relative to control; conditions: read-out: Activity
SK-MEL-2 [24] = experiment: Cytotoxicity against human SK-MEL-2 cells assessed as cell growth at 1 uM after 48 hrs by sulforhodamine B assay relative to control; conditions: SK-MEL-2, 48 h, read-out: Activity
LOX IMVI [25] = experiment: Cytotoxicity against human LOXIMVI cells assessed as cell growth at 10 uM after 48 hrs by sulforhodamine B assay relative to control; conditions: read-out: Activity
SK-MEL-2 [26] = experiment: Cytotoxicity against human SK-MEL-2 cells assessed as cell growth at 10 uM after 48 hrs by sulforhodamine B assay relative to control; conditions: SK-MEL-2, 48 h, read-out: Activity
LOX IMVI [27] = experiment: Cytotoxicity against human LOXIMVI cells assessed as cell growth at 100 uM after 48 hrs by sulforhodamine B assay relative to control; conditions: read-out: Activity
SK-MEL-2 [28] = experiment: Cytotoxicity against human SK-MEL-2 cells assessed as cell growth at 100 uM after 48 hrs by sulforhodamine B assay relative to control; conditions: SK-MEL-2, 48 h, read-out: Activity

Structure (SMILES): COc1ccc(-c2cc(/C=C/C(=O)c3ccc(N)cc3)[nH]n2)cc1
- GI50 (SF-295 [1]): 3.09 µM
- LC50 (SF-295 [1]): 49.6 µM
- TGI (SF-295 [1]): 13.1 µM
- GI50 (SNB-75 [2]): 2.25 µM
- LC50 (concentration killing 50% of cells) (SNB-75 [2]): 35.3 µM
- TGI (SNB-75 [2]): 11.4 µM
- GI50 (CAKI-1 [3]): 1.32 µM
- LC50 (CAKI-1 [3]): 64.3 µM
- TGI (CAKI-1 [3]): 11.1 µM
- growth at 0.01 µM (CAKI-1 [4]): 95%
- growth at 0.01 µM (SNB-75 [5]): 85%
- growth at 0.01 µM (SF-295 [6]): 93%
- growth at 0.1 µM (SF-295 [7]): 95%
- growth at 0.1 µM (SNB-75 [8]): 88%
- growth at 0.1 µM (CAKI-1 [9]): 97%
- growth at 1 µM (SF-295 [10]): 88%
- growth at 1 µM (SNB-75 [11]): 74%
- growth at 1 µM (CAKI-1 [12]): 56%
- growth at 10 µM (SF-295 [13]): 10%
- growth at 10 µM (SNB-75 [14]): 6%
- growth at 10 µM (CAKI-1 [15]): 3%
- growth at 100 µM (SF-295 [16]): -76%
- growth at 100 µM (SNB-75 [17]): -96%
- growth at 100 µM (CAKI-1 [18]): -63%

Structure (SMILES): COc1cc(-c2cc(/C=C/C(=O)c3ccc4c(c3)OCO4)[nH]n2)cc(OC)c1OC
- LC50 (CAKI-1 [3]): > 100 µM
- TGI (CAKI-1 [3]): > 100 µM
- growth at 0.01 µM (CAKI-1 [4]): 96%
- growth at 0.01 µM (SK-MEL-2 [19]): 90%
- growth at 0.01 µM (LOX IMVI [20]): 93%
- growth at 0.1 µM (LOX IMVI [21]): 93%
- growth at 0.1 µM (SK-MEL-2 [22]): 93%
- growth at 0.1 µM (CAKI-1 [9]): 96%
- growth at 1 µM (LOX IMVI [23]): 91%
- growth at 1 µM (SK-MEL-2 [24]): 101%
- growth at 1 µM (CAKI-1 [12]): 92%
- growth at 10 µM (LOX IMVI [25]): -67%
- growth at 10 µM (SK-MEL-2 [26]): 51%
- growth at 10 µM (CAKI-1 [15]): 35%
- growth at 100 µM (LOX IMVI [27]): -54%
- growth at 100 µM (SK-MEL-2 [28]): -60%
- growth at 100 µM (CAKI-1 [18]): 27%
